Source: PubChem BioAssay AID1963983 (Molecular Pharmacology Branch, DTP, NCI, 2024)

System: 186277-243-T-J2-PDC multi-cell spheroid viability
Test: Anticancer human tumor 186277-243-T-J2-PDC patient-derived colon adenocarcinoma cell line growth inhibition [PI3K]
Conditions: for IC50: curve of first compound; for viability, T/C: stronger effect = lower value
Procedure, shortened: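 Spheroid viability read-out. Co-cultures contained the tumor line plus HUVEC and human MSCs. Each agent was paired with a PI3K inhibitor (inavolisib, alpelisib, duvelisib, copanlisib) across half-log dilutions starting at clinical Cmax, or at 10 microM when Cmax was unknown.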
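Further: spheroids exposed to compounds for seven days before viability reading.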
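Wherever viability, T/C is given: 100% = DMSO vehicle control viability.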

**Q.** For CC(C)n1nc(-c2ccc3oc(N)nc3c2)c2c(N)ncnc21 + COc1c(OCCCN2CCOCC2)ccc2c3n(c(=NC(=O)c4cnc(N)nc4)nc12)CCN3, which IC50 (second compound 0.00316 µM) is on record?
**A.** 49.7 nM

**Q.** And the IC50 (second compound 0.01 µM)?
**A.** 42.2 nM

**Q.** And the IC50 (second compound 0.0316 µM)?
**A.** 5.38 nM

**Q.** What about the IC50 (second compound 0.1 µM) of the same compound?
**A.** < 0.316 nM

**Q.** And the IC50 (second compound 0.316 µM)?
**A.** < 0.316 nM

**Q.** And the IC50 (second compound 1 µM)?
**A.** < 0.316 nM

**Q.** What about the viability, T/C (second compound 0.00316 µM, first compound 0.000316 µM) of the same compound?
**A.** 108%

**Q.** What about the viability, T/C (second compound 0.00316 µM, first compound 0.001 µM) of the same compound?
**A.** 81.1%

**Q.** What about the viability, T/C (second compound 0.00316 µM, first compound 0.00316 µM) of the same compound?
**A.** 97.7%

**Q.** What about the viability, T/C (second compound 0.00316 µM, first compound 0.01 µM) of the same compound?
**A.** 82.9%

**Q.** What about the viability, T/C (second compound 0.00316 µM, first compound 0.0316 µM) of the same compound?
**A.** 70.8%

**Q.** And the viability, T/C (second compound 0.00316 µM, first compound 0.1 µM)?
**A.** 21.2%

**Q.** And the viability, T/C (second compound 0.01 µM, first compound 0.000316 µM)?
**A.** 97.5%

**Q.** What about the viability, T/C (second compound 0.01 µM, first compound 0.001 µM) of the same compound?
**A.** 103%

**Q.** What about the viability, T/C (second compound 0.01 µM, first compound 0.00316 µM) of the same compound?
**A.** 86.5%

**Q.** And the viability, T/C (second compound 0.01 µM, first compound 0.01 µM)?
**A.** 89.8%

**Q.** What about the viability, T/C (second compound 0.01 µM, first compound 0.0316 µM) of the same compound?
**A.** 61%

**Q.** And the viability, T/C (second compound 0.01 µM, first compound 0.1 µM)?
**A.** 14.7%

**Q.** And the viability, T/C (second compound 0.0316 µM, first compound 0.000316 µM)?
**A.** 74.2%

**Q.** And the viability, T/C (second compound 0.0316 µM, first compound 0.001 µM)?
**A.** 70.6%

**Q.** And the viability, T/C (second compound 0.0316 µM, first compound 0.00316 µM)?
**A.** 59.5%

**Q.** And the viability, T/C (second compound 0.0316 µM, first compound 0.01 µM)?
**A.** 39%

**Q.** What about the viability, T/C (second compound 0.0316 µM, first compound 0.0316 µM) of the same compound?
**A.** 17.1%

**Q.** And the viability, T/C (second compound 0.0316 µM, first compound 0.1 µM)?
**A.** 6.6%

**Q.** What about the viability, T/C (second compound 0.1 µM, first compound 0.000316 µM) of the same compound?
**A.** 17%

**Q.** What about the viability, T/C (second compound 0.1 µM, first compound 0.001 µM) of the same compound?
**A.** 17.5%

**Q.** And the viability, T/C (second compound 0.1 µM, first compound 0.00316 µM)?
**A.** 14.3%

**Q.** What about the viability, T/C (second compound 0.1 µM, first compound 0.01 µM) of the same compound?
**A.** 9.3%

**Q.** And the viability, T/C (second compound 0.1 µM, first compound 0.0316 µM)?
**A.** 8.21%

**Q.** And the viability, T/C (second compound 0.1 µM, first compound 0.1 µM)?
**A.** 3.59%

**Q.** What about the viability, T/C (second compound 0.316 µM, first compound 0.000316 µM) of the same compound?
**A.** 4.14%

**Q.** And the viability, T/C (second compound 0.316 µM, first compound 0.001 µM)?
**A.** 7.06%

**Q.** What about the viability, T/C (second compound 0.316 µM, first compound 0.00316 µM) of the same compound?
**A.** 4.26%

**Q.** And the viability, T/C (second compound 0.316 µM, first compound 0.01 µM)?
**A.** 4.69%

**Q.** What about the viability, T/C (second compound 0.316 µM, first compound 0.0316 µM) of the same compound?
**A.** 2.78%

**Q.** And the viability, T/C (second compound 0.316 µM, first compound 0.1 µM)?
**A.** 2.4%

**Q.** And the viability, T/C (second compound 1 µM, first compound 0.000316 µM)?
**A.** 3.07%

**Q.** And the viability, T/C (second compound 1 µM, first compound 0.001 µM)?
**A.** 1.73%

**Q.** And the viability, T/C (second compound 1 µM, first compound 0.00316 µM)?
**A.** 3%

**Q.** What about the viability, T/C (second compound 1 µM, first compound 0.01 µM) of the same compound?
**A.** 1.5%

**Q.** And the viability, T/C (second compound 1 µM, first compound 0.0316 µM)?
**A.** 3.24%

**Q.** What about the viability, T/C (second compound 1 µM, first compound 0.1 µM) of the same compound?
**A.** 1.04%
